Test results reported in US10287301B2 (Achillion Pharmaceuticals, Inc., priority 2015, dated 2019).

System: complement alternative pathway (CAP), hemolysis of rabbit erythrocytes (RE)
Assay: Combination therapy: hemolysis assay of two compounds
Type: cell-based, human
Conditions: combination with Complement Factor D inhibitor ("1"); 95% confidence limits; means ± standard deviations from two or three independent experiments
Protocol: The combinatorial efficacy of two compounds on the complement alternative pathway (CAP) was assessed by determining the effect of two compounds mixed together at various concentrations with Normal Human Serum (NHS) on the hemolysis of rabbit erythrocytes (RE) or the production of terminal complement complex (TCC). In both assays the two test compounds were prepared individually in seven-point dilution series, with an eighth sample for each containing solvent alone, and each of the 64 possible combinations was tested in duplicate or triplicate wells.
In the hemolysis assay, NHS (Complement Technology) diluted to 10% in GVB^0 Buffer (0.1% gelatin, 5 mM Veronal, 145 mM NaCl, 0.025% NaN3, pH 7.3, Complement Technology) plus 10 mM Mg-EGTA was incubated with the compounds at various concentrations for 15 minutes at 37° C. RE (Complement Technology) freshly suspended in GVB^0 plus 10 mM Mg-EGTA was added to a final concentration of 1×10^8 cells/mL and reactions were incubated for 30 minutes at 37° C. Positive control reactions consist of GVB^0 plus Mg-EGTA with NHS and RE but without test compounds; negative control reactions consist of GVB^0 plus Mg-EGTA with RE only. Samples were centrifuged at 2000 g for 3 minutes and supernatants collected. Absorbance at 405 nm (A405) was recorded using a microplate spectrophotometer.
Combinatorial effects in both assays were analyzed using the three-dimensional surface-graphing method of Prichard, M. N. and C. Shipman, Jr., Antiviral Research 1990, 14: 181-205, wherein the X-axis and Y-axis indicate test compound concentrations and the Z-axis indicates the difference between measured inhibition and a theoretically determined additive inhibition. For an additive combinatorial relationship the surface graph will resemble a horizontal plane of zero height, whereas positive surface peaks indicate greater inhibition than expected and therefore synergy, and negative surface peaks indicate less inhibition than expected and therefore antagonism.
Synergy and antagonism volumes are the summed volumes of peaks respectively above and below the Z=0 plane on the surface graph. Volumes are determined using 95% confidence limits to assure significance. Compounds are considered additive for volumes between −25 and 25. Compounds are considered slightly synergistic for volumes between 25 and 50, moderately synergistic for volumes between 50 and 100, and strongly synergistic for volumes greater than 100. Compounds are considered slightly antagonistic for volumes between −25 and −50, moderately antagonistic for volumes between −50 and −100, and strongly antagonistic for volumes less than −100. Results are presented as means±standard deviations from two or three independent experiments.

Structure (SMILES) | Antagonism Volume [μM^2 · % inhibition] | Synergy Volume [μM^2 · % inhibition]
CCN[C@H](CC(=O)N1CCN(c2nc(N)c3cc(OC)c(OC)c(F)c3n2)CC1)c1ccc(F)cc1 [Complement Factor B inhibitor] | −18 ± 10 | 157 ± 99
CC[C@H](C)[C@H](N)C(=O)N[C@H]1CSSC[C@@H](C(=O)N[C@H](C(N)=O)[C@@H](C)O)NC(=O)[C@H](CCCN=C(N)N)NC(=O)[C@H](Cc2cnc[nH]2)NC(=O)[C@H](Cc2cnc[nH]2)NC(=O)CNC(=O)[C@H](Cc2c[nH]c3ccccc23)NC(=O)[C@H](CC(=O)O)NC(=O)[C@H](CCC(N)=O)NC(=O)[C@H](C(C)C)NC(=O)[C@H](C(C)C)NC1=O [Compstatin] | −17 ± 15 | 244 ± 104
N=C(N)c1ccc2cc(OC(=O)c3ccc(N=C(N)N)cc3)ccc2c1 [FUT-175] | −59 ± 11 | 95 ± 37
